Reference: patent US10927170B2, “Anti-claudin 1 monoclonal antibodies for the prevention and treatment of hepatocellular carcinoma” (INSTITUT HOSPITALIER UNIVERSITAIRE DE STRASBOURG, priority 2015, dated 2021)

Assays:
[1] = test system: HCV Jc1-infected Huh7.5.1^dif cells; experiment: 186-gene HCC risk signature (nCounter, GSEA, nearest template prediction) in persistently HCV Jc1-infected Huh7.5.1^dif cells; assay type: cell-based, human; conditions: for Reversal of HCC high-risk genes as shown by GSEA (FIG. 2A): DAA 1 nM DCV+1 μM SOF, interferon alpha-2a 10 IU/ml, erlotinib 0.1 μM, pioglitazone 1 μM, metformin 3 μM, mAb 1, 10 and 100 μg/ml
Experimental: Huh7.5.1 cells have already been described (Zhong et al., Proc Natl Acad Sci USA, 2005, 102(26): 9294-9299). For proliferation arrest and differentiation (Huh7.5.1^dif cells), 2.5.10^4 to 3.10^4 Huh7.5.1 cells were cultured in Dulbecco's Modified Eagle Medium (DMEM) containing 1% dimethylsulfoxide (DMSO).
Cell culture-derived HCVcc Jc1 (genotype 2a/2a) (Pietschmann et al., Proc Natl Acad Sci USA, 2006, 103(19): 7408-7413) were generated in Huh7.5.1 cells as previously described (Wakita et al., Nat Med., 2005, 11(7): 791-796). HCVcc infectivity was determined by calculating the 50% tissue culture infectious doses (TCID50) in infection experiments as previously described (Lindenbach et al., Science, 2005, 309(5734): 623-626). HCV infection was assessed by qRT-PCR of intracellular HCV RNA (Xiao et al., Gut, 2015, 64(3): 483-494) as well as by immunostaining using an HCV E2-specific AP33 antibody as previously described (Krieger et al., Hepatology. 2010, 51(4): 1144-1157).
Liver cells were lysed in TRI-reagent (Molecular Research Center), and RNA was purified using Direct-zol RNA MiniPrep (Zymo Research) according to the manufacturer's instructions. RNA quantity and quality were assessed using NanoDrop (ThermoScientific) and Bioanalyzer 2100 ([…]). Gene expression profiling was performed using 250-500 ng total RNA by using nCounter Digital Analyzer system (NanoString).
Cells incubated with 1% DMSO served as negative control. Three (3) days after treatment, the cells were lysed, total RNA was purified as described above, and analyzed for gene expression and intracellular viral load as described above.
Prediction of clinical outcome based on the 186-gene signature was performed as previously reported by using the nearest template prediction algorithm, which was implemented in GenePattern (King et al., Gut, 2014, 20. pii: gutjn1-2014-307862. doi: 10.1136/gutjn1-2014-307862; Hoshida et al., PLoS ONE, 2010, 5(11), e15543). A prediction of HCC high-risk or low-risk gene signature was determined using p<0.05 and FDR<0.25. Induction/suppression of each gene set over time according to HCV Jc1 infection and uninfected control was assessed through GSEA and single sample GSEA (ssGSEA) modules implemented in GenePattern as previously described (Subramanian et al., Proc Natl Acad Sci USA, 2005, 102(43): 15545-15550; Barbie et al., Nature, 2009, 462(7269): 108-112). […] Using differentially expressed genes, network analysis was performed using canonical pathways from Ingenuity Knowledge Base repository (Ingenuity Systems Inc.).

[2] = test system: rodent models of cirrhosis-driven HCC; conditions: Fuchs et al., Hepatology, 2014; cited from earlier work
[3] = 186-gene signature, treatment from day 7 post-infection, nCounter assay

| Compound | Reversal of HCC high-risk genes as shown by GSEA (FIG. 2A) [1] | NES, HCC high-risk genes (GSEA) [1, 3] | NES, HCC low-risk genes (GSEA) [1, 3] | 186-gene HCC risk signature [2] | Liver fibrosis and HCC nodules [2] |
| --- | --- | --- | --- | --- | --- |
| CN(C)C(=N)N=C(N)N [metformin] | had no effect | – | – | – | – |
| C#Cc1cccc(Nc2ncnc3cc(OCCOC)c(OCCOC)cc23)c1 [erlotinib] | partially reverses | −1.28 | 1.26 | reversed | reduced liver fibrosis and HCC nodules |
